Molecules are shown by their SMILES.

Data on 27 compounds can be found in BindingDB's records for doi:10.1021/acsmedchemlett.5b00489 (Peking Union Medical College, 2016).

The assay in a line: Antagonist activity at human recombinant CXCR2 assessed as inhibition of CXCL1-induced neutrophil chemotaxis after 45 mins by calcein-AM dye based plate reader method.

As for `CN1CCC(S(=O)(=O)c2c(Cl)ccc(NC(=O)Nc3cccc(Cl)c3Cl)c2O)CC1`, the IC50 is 158 nM. In the case of `CN1CCC(S(=O)(=O)c2c(Cl)ccc(NC(=O)Nc3cccc(F)c3Cl)c2O)CC1` it was 25 nM. Turning to `CCN1CCC(S(=O)(=O)c2c(Cl)ccc(NC(=O)Nc3cccc(F)c3Cl)c2O)CC1`, the IC50 is 158 nM. In the case of `CN1CC[C@H](S(=O)(=O)c2c(Cl)ccc(NC(=O)Nc3cccc(Cl)c3Cl)c2O)C1` it was 251 nM; in that of `NS(=O)(=O)c1c(Cl)ccc(NC(=O)Nc2cccc(Cl)c2Cl)c1O`, 316 nM; in that of `O=C(Nc1ccc(Cl)c(S(=O)(=O)N2CCNCC2)c1O)Nc1cccc(Cl)c1Cl`, 10000 nM.

Turning to `CN1CCN(S(=O)(=O)c2c(Cl)ccc(NC(=O)Nc3cccc(Cl)c3Cl)c2O)CC1`, the IC50 was 1000 nM. In the case of `CN1CCN(S(=O)(=O)c2c(Cl)ccc(NC(=O)Nc3cccc(F)c3Cl)c2O)CC1`, the IC50 was 316 nM. In the case of `CCN1CCN(S(=O)(=O)c2c(Cl)ccc(NC(=O)Nc3cccc(F)c3Cl)c2O)CC1` it was 2000 nM; in that of `CC(C)N1CCN(S(=O)(=O)c2c(Cl)ccc(NC(=O)Nc3cccc(F)c3Cl)c2O)CC1`, 2000 nM; in that of `C[C@@H]1CN(S(=O)(=O)c2c(Cl)ccc(NC(=O)Nc3cccc(F)c3Cl)c2O)C[C@H](C)O1`, 3160 nM. Then `C[C@@H]1CN(S(=O)(=O)c2c(Cl)ccc(NC(=O)Nc3cccc(Cl)c3Cl)c2O)C[C@H](C)O1`, with 15800 nM; and `CCS(=O)(=O)c1c(Cl)ccc(NC(=O)Nc2cccc(Cl)c2Cl)c1O`, with 6310 nM; and `CC(C)S(=O)(=O)c1c(Cl)ccc(NC(=O)Nc2cccc(F)c2Cl)c1O`, with 10 nM.

For the compound `CC(C)S(=O)(=O)c1c(Cl)ccc(NC(=O)Nc2cccc(Cl)c2Cl)c1O`, the IC50 was 158 nM.

In the case of `CC(C)(C)S(=O)(=O)c1c(Cl)ccc(NC(=O)Nc2cccc(F)c2Cl)c1O`, the 50% inhibitory concentration (IC50) was 40 nM. In the case of `O=C(Nc1ccc(Cl)c(S(=O)(=O)C2CCC2)c1O)Nc1cccc(F)c1Cl` it was 13 nM. `O=C(Nc1ccc(Cl)c(S(=O)(=O)C2CCCC2)c1O)Nc1cccc(F)c1Cl`: the IC50 is 25 nM. On to `O=C(Nc1ccc(Cl)c(S(=O)(=O)C2CCCCC2)c1O)Nc1cccc(F)c1Cl`, for which the IC50 was 79 nM. In the case of `O=C(Nc1ccc(Cl)c(S(=O)(=O)C2CCOC2)c1O)Nc1cccc(Cl)c1Cl` (configuration not stated) it was 7.9 nM; in that of `O=C(Nc1ccc(Cl)c(S(=O)(=O)C2CCOCC2)c1O)Nc1cccc(Cl)c1Cl`, 6.3 nM; in that of `CN1CC[C@H](S(=O)(=O)c2c(Cl)ccc(NC(=O)Nc3cccc(F)c3Cl)c2O)C1`, 79 nM. Then `CN1CCC[C@H](S(=O)(=O)c2c(Cl)ccc(NC(=O)Nc3cccc(F)c3Cl)c2O)CC1`, with 100 nM. As for `CN1CC2(CC(S(=O)(=O)c3c(Cl)ccc(NC(=O)Nc4cccc(F)c4Cl)c3O)C2)C1`, the IC50 is 631 nM. In the case of `CN1CCC2(CCC(S(=O)(=O)c3c(Cl)ccc(NC(=O)Nc4cccc(F)c4Cl)c3O)CC2)CC1` it was 25 nM; in that of `O=C(Nc1ccc(Cl)c(C(=O)N2CCCC2)c1O)Nc1cccc(F)c1Cl`, 7.9 nM; in that of `O=C(Nc1ccc(Cl)c(C(=O)N2CCCCC2)c1O)Nc1cccc(F)c1Cl`, 6.3 nM.
